From US20230295197A1, “STAT5 and STAT6 Degraders and Uses Thereof” (REGENTS OF THE UNIVERSITY OF MICHICAN, priority 2022, published 2023)
Like-named read-outs stand apart in the source and are kept apart here.

Target: T1, STAT6 (Homo sapiens, UniProt P42226)
T1 construct: endogenous in cells; host or cells: MOLM-16, KU-812, SKNO1, MB231, L1236
T1 sequence (P42226 1-847): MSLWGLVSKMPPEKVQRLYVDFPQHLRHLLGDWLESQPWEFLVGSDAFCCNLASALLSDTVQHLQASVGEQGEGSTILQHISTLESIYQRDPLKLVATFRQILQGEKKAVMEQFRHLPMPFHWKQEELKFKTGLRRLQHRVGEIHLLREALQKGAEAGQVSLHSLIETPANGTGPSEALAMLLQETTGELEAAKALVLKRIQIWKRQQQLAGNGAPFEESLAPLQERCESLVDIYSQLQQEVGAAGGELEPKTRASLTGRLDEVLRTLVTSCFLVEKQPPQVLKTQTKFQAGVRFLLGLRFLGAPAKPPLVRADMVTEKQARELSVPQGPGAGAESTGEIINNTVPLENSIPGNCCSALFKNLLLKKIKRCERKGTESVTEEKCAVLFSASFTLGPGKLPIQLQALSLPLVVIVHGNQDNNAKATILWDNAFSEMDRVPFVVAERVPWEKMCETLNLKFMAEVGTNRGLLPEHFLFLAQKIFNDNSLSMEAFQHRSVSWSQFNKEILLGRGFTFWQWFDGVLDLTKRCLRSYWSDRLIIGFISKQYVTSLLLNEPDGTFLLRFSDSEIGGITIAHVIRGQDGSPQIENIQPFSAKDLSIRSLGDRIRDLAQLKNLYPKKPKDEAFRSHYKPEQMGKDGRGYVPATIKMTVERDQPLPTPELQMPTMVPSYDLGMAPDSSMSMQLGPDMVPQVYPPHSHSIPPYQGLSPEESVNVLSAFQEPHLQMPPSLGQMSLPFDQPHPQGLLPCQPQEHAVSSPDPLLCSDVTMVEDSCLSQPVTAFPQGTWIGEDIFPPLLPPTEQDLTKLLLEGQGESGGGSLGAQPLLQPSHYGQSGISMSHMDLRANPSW
Assay: Immunoblotting (Western blot) analysis of STAT6 degradation efficiency of degraders in treated cells
Format: cell-based
Method in brief: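 About 1 million cells per point, grown in 10% FBS medium at 37 °C/5% CO2, were exposed to compound at the indicated concentrations and times, then lysed in RIPA buffer with protease and phosphatase inhibitors. Equal protein (20-40 μg) was resolved by SDS-PAGE, blotted to PVDF, and probed with anti-STAT5, anti-STAT6 and anti-GAPDH antibodies.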

[1] = MOLM-16 cells, class symbols, read-out: DC50 S6 MOLM-16
[2] = L1236 cells, read-out: DC50 S6 L1236

| Structure (SMILES) | DC50 [1] | DC50 [2] | DC50 (MB231 cells, read-out: DC50 S6 MB231) |
| --- | --- | --- | --- |
| CC(C)(C)[C@H](NC(=O)c1cc2cc(C(F)(F)P(=O)(O)O)ccc2s1)C(=O)N1CCN(C(=O)CC(=O)NCCCCCCCCC#Cc2ccc3c(c2)C(=O)N(C2CCC(=O)NC2=O)C3=O)C[C@H]1C(=O)N1CCO[C@H](c2ccccc2)C1 (stereo partly drawn) [Compound 518, ((2-(((2S)-1-((2S)-4-(3-((10-(2-(2,6-dioxopiperidin-3-yl)-1,3-dioxoisoindolin-5-yl)dec-9-yn-1-yl)amino)-3-oxopropanoyl)-2-((R)-2-phenylmorpholine-4-carbonyl)piperazin-1-yl)-3,3-dimethyl-1-oxobutan-2-yl)carbamoyl)benzo[b]thiophen-5-yl)difluoromethyl)phosphonic acid] | > 10 µM |  |  |
| CC(C)(C)[C@H](NC(=O)c1cc2cc(C(F)(F)P(=O)(O)O)ccc2s1)C(=O)N1C[C@@H](OCC(=O)NCCCCC#Cc2cccc3c2C(=O)N(C2CCC(=O)NC2=O)C3=O)C[C@H]1C(=O)N1CCO[C@H](c2ccccc2)C1 (stereo partly drawn) [Compound 485, ((2-(((2S)-1-((2S,4S)-4-(2-((6-(2-(2,6-dioxopiperidin-3-yl)-1,3-dioxoisoindolin-4-yl)hex-5-yn-1-yl)amino)-2-oxoethoxy)-2-((R)-2-phenylmorpholine-4-carbonyl)pyrrolidin-1-yl)-3,3-dimethyl-1-oxobutan-2-yl)carbamoyl)benzo[b]thiophen-5-yl)difluoromethyl)phosphonic acid] | > 10 µM |  |  |
| Cc1ncsc1-c1ccc([C@H](C)NC(=O)[C@@H]2C[C@@H](O)CN2C(=O)[C@@H](NC(=O)CCCCCCCCCNC(=O)CO[C@H]2C[C@@H](C(=O)N3CCC[C@H](c4ccccc4)C3)N(C(=O)[C@@H](NC(=O)c3cc4cc(C(F)(F)P(=O)(O)O)ccc4s3)C(C)(C)C)C2)C(C)(C)C)cc1 [Compound 442, (difluoro(2-(((S)-1-((2S,4S)-4-(2-((10-(((S)-1-((2S,4R)-4-hydroxy-2-(((S)-1-(4-(4-methylthiazol-5-yl)phenyl)ethyl)carbamoyl)pyrrolidin-1-yl)-3,3-dimethyl-1-oxobutan-2-yl)amino)-10-oxodecyl)amino)-2-oxoethoxy)-2-((R)-3-phenylpiperidine-1-carbonyl)pyrrolidin-1-yl)-3,3-dimethyl-1-oxobutan-2-yl)carbamoyl)benzo[b]thiophen-5-yl)methyl)phosphonic acid] | > 10 µM | > 10 µM |  |
| Cc1ncsc1-c1ccc([C@H](CC(=O)NCCOCCOCCOCCC(=O)N[C@H]2C[C@@H](C(=O)N3CCO[C@H](c4ccccc4)C3)N(C(=O)[C@@H](NC(=O)c3cc4cc(C(F)(F)P(=O)(O)O)ccc4s3)C(C)(C)C)C2)NC(=O)[C@@H]2C[C@@H](O)CN2C(=O)[C@@H](NC(=O)C2(F)CC2)C(C)(C)C)cc1 [Compound 573, (difluoro(2-(((S)-1-((2S,4S)-4-((S)-1-((2S,4R)-1-((S)-2-(1-fluorocyclopropane-1-carboxamido)-3,3-dimethylbutanoyl)-4-hydroxypyrrolidin-2-yl)-3-(4-(4-methylthiazol-5-yl)phenyl)-1,5-dioxo-9,12,15-trioxa-2,6-diazaoctadecan-18-amido)-2-((R)-2-phenylmorpholine-4-carbonyl)pyrrolidin-1-yl)-3,3-dimethyl-1-oxobutan-2-yl)carbamoyl)benzo[b]thiophen-5-yl)methyl)phosphonic acid] | > 10 µM |  |  |
| Cc1ncsc1-c1ccc([C@H](C)NC(=O)[C@@H]2C[C@@H](O)CN2C(=O)[C@@H](NC(=O)CCCCCNC(=O)CO[C@H]2C[C@@H](C(=O)N3CCO[C@H](c4ccccc4)C3)N(C(=O)[C@@H](NC(=O)c3cc4cc(C(F)(F)P(=O)(O)O)ccc4s3)C(C)(C)C)C2)C(C)(C)C)cc1 [Compound 429, (difluoro(2-(((S)-1-((2S,4S)-4-(2-((6-(((S)-1-((2S,4R)-4-hydroxy-2-(((S)-1-(4-(4-methylthiazol-5-yl)phenyl)ethyl)carbamoyl)pyrrolidin-1-yl)-3,3-dimethyl-1-oxobutan-2-yl)amino)-6-oxohexyl)amino)-2-oxoethoxy)-2-((R)-2-phenylmorpholine-4-carbonyl)pyrrolidin-1-yl)-3,3-dimethyl-1-oxobutan-2-yl)carbamoyl)benzo[b]thiophen-5-yl)methyl)phosphonic acid] | > 10 µM | > 10 µM |  |
| CC(C)(C)[C@H](NC(=O)c1cc2cc(C(F)(F)P(=O)(O)O)ccc2s1)C(=O)N1Cc2cc(OCC(=O)NCCCCCCCCC#Cc3cccc4c3C(=O)N(C3CCC(=O)NC3=O)C4=O)ccc2C[C@H]1C(=O)N1CCC[C@H](c2ccccc2)C1 (stereo partly drawn) [Compound 559, ((2-(((2S)-1-((3S)-7-(2-((10-(2-(2,6-dioxopiperidin-3-yl)-1,3-dioxoisoindolin-4-yl)dec-9-yn-1-yl)amino)-2-oxoethoxy)-3-((R)-3-phenylpiperidine-1-carbonyl)-3,4-dihydroisoquinolin-2(1H)-yl)-3,3-dimethyl-1-oxobutan-2-yl)carbamoyl)benzo[b]thiophen-5-yl)difluoromethyl)phosphonic acid] | > 10 µM |  |  |
| Cc1ncsc1-c1ccc(CNC(=O)[C@@H]2C[C@@H](O)CN2C(=O)[C@@H](NC(=O)CCCCCCCNC(=O)CO[C@@H]2C[C@@H](C(=O)N(C)c3ccc(Br)cc3)N(C(=O)[C@@H](NC(=O)c3cc4cc(C(F)(F)P(=O)(O)O)ccc4s3)C(C)(C)C)C2)C(C)(C)C)cc1 [Compound 419, ((2-(((S)-1-((2S,4R)-2-((4-bromophenyl)(methyl)carbamoyl)-4-(2-((8-(((S)-1-((2S,4R)-4-hydroxy-2-((4-(4-methylthiazol-5-yl)benzyl)carbamoyl)pyrrolidin-1-yl)-3,3-dimethyl-1-oxobutan-2-yl)amino)-8-oxooctyl)amino)-2-oxoethoxy)pyrrolidin-1-yl)-3,3-dimethyl-1-oxobutan-2-yl)carbamoyl)benzo[b]thiophen-5-yl)difluoromethyl)phosphonic acid] |  | > 10 µM | > 10 µM |
| CC(C)(C)[C@H](NC(=O)c1cc2cc(C(F)(F)P(=O)(O)O)ccc2s1)C(=O)N1C[C@@H](OCC(=O)NCCCCCCCCC#Cc2cccc3c2C(=O)N(C2CCC(=O)NC2=O)C3=O)C[C@H]1C(=O)N1CCC[C@H](c2ccccc2)C1 (stereo partly drawn) [Compound 503, ((2-(((2S)-1-((2S,4S)-4-(2-((10-(2-(2,6-dioxopiperidin-3-yl)-1,3-dioxoisoindolin-4-yl)dec-9-yn-1-yl)amino)-2-oxoethoxy)-2-((R)-3-phenylpiperidine-1-carbonyl)pyrrolidin-1-yl)-3,3-dimethyl-1-oxobutan-2-yl)carbamoyl)benzo[b]thiophen-5-yl)difluoromethyl)phosphonic acid] | > 10 µM |  |  |
| Cc1ncsc1-c1ccc([C@H](C)NC(=O)[C@@H]2C[C@@H](O)CN2C(=O)[C@@H](NC(=O)CCCNC(=O)COc2ccc3c(c2)CN(C(=O)[C@@H](NC(=O)c2cc4cc(C(F)(F)P(=O)(O)O)ccc4s2)C(C)(C)C)[C@H](C(=O)N2CCO[C@H](c4ccccc4)C2)C3)C(C)(C)C)cc1 [Compound 463, (difluoro(2-(((S)-1-((S)-7-(2-((4-(((S)-1-((2S,4R)-4-hydroxy-2-(((S)-1-(4-(4-methylthiazol-5-yl)phenyl)ethyl)carbamoyl)pyrrolidin-1-yl)-3,3-dimethyl-1-oxobutan-2-yl)amino)-4-oxobutyl)amino)-2-oxoethoxy)-3-((R)-2-phenylmorpholine-4-carbonyl)-3,4-dihydroisoquinolin-2(1H)-yl)-3,3-dimethyl-1-oxobutan-2-yl)carbamoyl)benzo[b]thiophen-5-yl)methyl)phosphonic acid] | > 10 µM | > 10 µM |  |
| Cc1ncsc1-c1ccc([C@H](C)NC(=O)[C@@H]2C[C@@H](O)CN2C(=O)[C@@H](NC(=O)CCCCCCNC(=O)CC(=O)N2CCN(C(=O)[C@@H](NC(=O)c3cc4cc(C(F)(F)P(=O)(O)O)ccc4s3)C(C)(C)C)[C@H](C(=O)N3CCO[C@H](c4ccccc4)C3)C2)C(C)(C)C)cc1 [Compound 448, (difluoro(2-(((S)-1-((S)-4-(3-((7-(((S)-1-((2S,4R)-4-hydroxy-2-(((S)-1-(4-(4-methylthiazol-5-yl)phenyl)ethyl)carbamoyl)pyrrolidin-1-yl)-3,3-dimethyl-1-oxobutan-2-yl)amino)-7-oxoheptyl)amino)-3-oxopropanoyl)-2-((R)-2-phenylmorpholine-4-carbonyl)piperazin-1-yl)-3,3-dimethyl-1-oxobutan-2-yl)carbamoyl)benzo[b]thiophen-5-yl)methyl)phosphonic acid] | > 10 µM | > 10 µM |  |
